The values that follow come from patent US20240190922A1, “PEPTIDE PLATINUM COMPLEXES AND METHODS OF USE THEREOF” (priority 2020, published 2024).

This assay has as its system A375 cells (human skin melanoma derived cell line). Kind of assay: A375 cell killing assay (CellTiter-Glo luminescence). The format is cell-based. Particulars: for potency relative to Onco-001 (times more potent): from EC50 values. On the procedure: Alternatively, A375 cells (human skin melanoma derived cell line) are harvested by centrifugation and then re-suspended in a culture medium. The cell density is adjusted, and cell suspension transferred to the assay multi-well plate. The marginal wells are filled with PBS. The assay plate is incubated in a cell incubator for about 16˜18 hours. Working solutions of test compounds and positive control at various concentrations are added to corresponding wells of the plate. The assay plate is then incubated for an additional 72 hours in a 37° C./5% CO2 incubator. After incubation, the working solution of CellTiter-Glo® reagent is added to the corresponding wells and shaken on an orbital shaker. The assay plate is incubated at room temperature for a short while to stabilize the luminescent signal. Luminescence signals are measured by a luminescence plate reader, such as PheraStar (BMG). Data are stored on a local computer or computer server for analysis.
(In general: In ATP-based viability assays light output follows the ATP content of the culture.)

Ends that are not written are not given here.

Take “Onco-003: formula (I): R1 and R2 form trans-R,R-1,2-diaminocyclohexane, R3 and R4 joined by bidentate peptide AcGPSRVGGCD”: the “potency relative to Onco-001 (times more potent)” value was “approximately 15 ×”.
One may read the EC50 as the concentration that produces a half-maximal response. A low value points to higher potency in that assay. In the case of “cis-bis[AcGPSRVGGCNH2][trans-(1R,2R)-1,2-diaminocyclohexane]platinum(II) [Onco-001]”, the EC50 (72 hours incubation, CellTiter-Glo) is around 130 µM.
As to “Onco -005 (Ac-GPSRVGG; not fully specified (C-terminus); also: gamma-carboxyglutamic acid, no place given)”, the “potency relative to Onco-001 (times more potent)” value was “approximately 15 ×”.
